These results are taken from patent publication US20050170397A1, “Novel receptors” (Tularik Inc., priority 2000, published 2005).

The subject of one experiment is endogenous Gq receptors. Briefly: Ca^2+ response through endogenous Gq receptors with or without PTX (control). In kind it is cell-based. Conditions: HEK293 cells; 100 ng/ml PTX for 16 hr; FIG. 7. As for the experimental part:
(§1) The Ca^2+ responses were determined with the aequorin assay. Relative luminescence is expressed as the fold-luminescence of that from the cells treated with the highest cocnetration of the ligand without PTX treatment.
(§2) LPA and ADP, which stimulate Ca^2+ increase through endogenous Gi and Gq receptors, respectively (see, e.g., Moolenaar, Ann. N. Y Acad. Sci. 905:1-10, 2000; Fields et al., Biochem. J. 321:561-571, 1997), were tested as controls. As expected, LPA-induced Ca^2+ response was PTX sensitive while the ADP-induced response was resistant (FIG. 7).

In experiment [1] the target is T1, TGR342 (Homo sapiens, UniProt Q969V1).
T1 construct: The full-length TGR342 cDNA was cloned by; V5 (known only from the vector name pEF6-V5); expressed in transfected cells; host or cells: HEK293 and CHO cells, transient
T1 sequence (Q969V1 whole entry): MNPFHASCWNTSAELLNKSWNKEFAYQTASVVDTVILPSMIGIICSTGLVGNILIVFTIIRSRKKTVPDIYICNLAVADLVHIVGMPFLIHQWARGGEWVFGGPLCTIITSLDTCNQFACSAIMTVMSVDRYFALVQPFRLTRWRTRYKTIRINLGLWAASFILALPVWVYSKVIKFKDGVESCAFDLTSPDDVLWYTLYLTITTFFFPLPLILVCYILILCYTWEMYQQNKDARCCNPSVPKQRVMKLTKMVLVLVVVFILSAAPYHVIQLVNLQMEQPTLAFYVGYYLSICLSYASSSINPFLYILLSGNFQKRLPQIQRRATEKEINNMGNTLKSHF
In words: Ca^2+ response (aequorin assay) with or without pertussis toxin, TGR342-transfected cells. The class given is cell-based. As to the method: as §1, §2

Experiment [2] addresses T1, TGR342. In words: inositol phosphate production in TGR342-transfected cells with or without PTX. The class given is cell-based.
In experiment [3] the target is T1, TGR342. In words: aequorin luminescence assay of intracellular calcium mobilization, TGR342-transfected cells. The class given is cell-based. Conditions: for effect on intracellular calcium levels (peptide library screen): peptides at 1 μM, HEK293 or CHO cells co-transfected with pEF6-V5/TGR342 and pcDNA3/AEQ; for TGR342 agonist activity of MCH-related peptides / TGR342 agonist activity at 1 μM: FIG. 5; for TGR342 agonist activity of MCH-related peptides: concentration not given. As to the method: HEK293 and CHO cells were transiently co-transfected with pEF6-V5/TGR342 and pcDNA3/AEQ (expressing aequorin). After 24 hours of incubation, the transfected cells were treated for one hour with serum free medium containing 2 μM coelenterazine f (Molecular Probes). The cells were then collected in the assay buffer HBSS (Hanks' Balanced Saline Solution containing 10 mM hepes and 0.1% BSA). Thereafter, the transfected cells were stimulated with the peptides at a concentration of 1 μM and the kinetics of […] from the cells was recorded with a microplate luminometer (EG & G BERTHOLT).
(A change in cytosolic calcium serves as a functional read-out for many receptors and channels.)

Experiment [4] deals with T1, TGR342. In words: [^125I]-MCH binding to membranes of TGR342-transfected HEK293 cells. Conditions: inhibited by excess unlabeled MCH (data not shown).
Experiment [5] addresses T2, MCHR1 (Homo sapiens, UniProt Q99705). Briefly: Ca^2+ response (aequorin assay) with or without pertussis toxin, MCHR1-transfected cells. The class given is cell-based. The note with it: MCH stimulation; 100 ng/ml PTX pretreatment for 16 hr. As to the method:
as §1, §2

For experiment [6], the target named is T2, MCHR1. The note with it: stated as known; cited from earlier work.
The mark [7] stands for this setting: 100 ng/ml PTX pretreatment for 16 hr.
Setting [8] is: HEK293 (or CHO) cells transfected with pEF6/V5-TGR342.

“Also recorded” adds a separate entry of the source. Where no end group is shown, it is not given here.

T2 sequence (Q99705 whole entry): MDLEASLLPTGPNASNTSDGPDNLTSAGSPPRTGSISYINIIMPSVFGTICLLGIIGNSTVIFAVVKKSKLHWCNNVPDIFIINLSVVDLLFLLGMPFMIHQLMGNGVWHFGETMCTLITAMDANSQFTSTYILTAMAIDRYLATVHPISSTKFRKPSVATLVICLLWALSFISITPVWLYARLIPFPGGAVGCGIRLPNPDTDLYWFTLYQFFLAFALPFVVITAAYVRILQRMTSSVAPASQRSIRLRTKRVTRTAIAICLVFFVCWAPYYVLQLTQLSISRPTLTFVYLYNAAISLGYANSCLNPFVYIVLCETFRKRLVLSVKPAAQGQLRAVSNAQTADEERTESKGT

Take `Nc1ncnc2c1ncn2[C@@H]1O[C@H](COP(=O)(O)OP(=O)(O)O)[C@@H](O)[C@H]1O` [ADP]: the “PTX sensitivity of the Ca^2+ response through endogenous Gq receptors” value with endogenous Gq receptors is “resistant”. Regarding `CSCC[C@@H]1NC(=O)[C@@H](NC(=O)[C@H](CCCNC(=N)N)NC(=O)[C@H](CC(C)C)NC(=O)[C@H](CCSC)NC(=O)[C@H](CC(=O)O)NC(=O)[C@H](Cc2ccccc2)NC(=O)[C@@H](N)CC(=O)O)CSSC[C@@H](C(=O)N[C@@H](Cc2c[nH]c3ccccc23)C(=O)N[C@@H](CCC(N)=O)C(=O)N[C@H](C(=O)O)C(C)C)NC(=O)[C@@H]2CCCN2C(=O)[C@H](CCCNC(=N)N)NC(=O)[C@H](Cc2ccc(O)cc2)NC(=O)[C@H](C(C)C)NC(=O)[C@H](CCCNC(=N)N)NC(=O)CNC(=O)[C@H](CC(C)C)NC1=O` [MCH, melanin-concentrating hormone], the “PTX sensitivity of the Ca^2+ response, TGR342” value on TGR342 [1] (setting [7]) is given as “insensitive to PTX treatment”. Moreover, the “Ca^2+ levels in TGR342-transfected cells” value on TGR342 [1] (setting [8]) is given as “increased levels”. The “PTX sensitivity of the inositol phosphate response, TGR342” value at TGR342 [2] (setting [7]) is recorded as “insensitive to PTX treatment”. Moreover, at TGR342 [2] (setting [8]), the “inositol phosphate levels in TGR342-transfected cells” value is recorded as “increased levels; also recorded: increased the production of inositol phosphate”. Further, the “effect on intracellular calcium levels (peptide library screen)” value on TGR342 [3] is reported as “increased intracellular calcium levels”. In addition, the “specificity of binding to TGR342” value on TGR342 [4] is “specific”. In addition, the “PTX sensitivity of the Ca^2+ response, MCHR1” value at MCHR1 [5] is “mostly inhibited”. In the case of [Phe^13, Tyr^19]-MCH, on TGR342 [3], the “TGR342 agonist activity of MCH-related peptides” value is listed as “activates”. Also, at MCHR1 [6], the “activation of MCHR1 (known)” value was “bind and activate”. Take “cortistatin-14 (PCKNFFWKTFSSCK; ends and bridges not checked; cysteine pairing not given here; UniProt Q62949 99-112, looked up) [peptide structurally very similar to somatostatin]”: the “TGR342 agonist activity at 1 μM” value with TGR342 [3] is given as “None of these peptides exhibited activity”. As for cortistatin-17, the “TGR342 agonist activity at 1 μM” value at TGR342 [3] was “None of these peptides exhibited activity”. For the molecule “neuropeptide GE: peptide from the same MCH precursor (GSVAFPAENGVQNTESTQE; Neuropeptide-glycine-glutamic acid; UniProt P20382 110-128, looked up)”, the “TGR342 agonist activity of MCH-related peptides” value with TGR342 [3] is “inactive”. The same measure, in the same setting: the same measure for “neuropeptide-EI: peptide from the same MCH precursor (EIGDEENSAKFPI; ends and bridges not checked; UniProt P20382 131-143, looked up)”: “inactive”.

With somatostatin-14, in the experiment with TGR342 [3], the “TGR342 agonist activity at 1 μM” value is recorded as “None of these peptides exhibited activity”. Still for that read-out and setting: the same measure for somatostatin-28: “None of these peptides exhibited activity”. Turning to α-MSH: the functional MCH antagonist, in the experiment with TGR342 [3], the “TGR342 agonist activity at 1 μM” value is “inactive as an agonist” and the “effect on intracellular calcium levels (peptide library screen)” value is listed as “Neither somatostatin nor α-MSH showed any detectable effect”.
